Usually IC50 stands for the point on the concentration scale where inhibition reaches its midpoint.

Read-outs that look alike come from different tables or passages of the source.

The values that follow come from patent US11407721B2, “CIS-morpholinone and other compounds as MDM2 inhibitors for the treatment of cancer” (AMGEN INC., priority 2013, dated 2022).

Assay [1] has as its target interaction between HDM2 and p53 (GST-hMDM2 (1-188) / biotinylated-p53 (1-83)) (Homo sapiens (Human), UniProt Q00987). Briefly: HTRF2 Assay (improved HTRF assay). Type of assay: binding. A general note: TR-FRET usually uses a lanthanide donor and a delayed reading to cut background.
The target in assay [2] is interaction between HDM2 and p53 (GST-hMDM2 / biotinylated-p53) (Homo sapiens (Human), UniProt Q00987). Briefly: biochemical.
interaction between HDM2 and p53 (GST-hMDM2 / biotinylated-p53), sequence (Q00987 1-188): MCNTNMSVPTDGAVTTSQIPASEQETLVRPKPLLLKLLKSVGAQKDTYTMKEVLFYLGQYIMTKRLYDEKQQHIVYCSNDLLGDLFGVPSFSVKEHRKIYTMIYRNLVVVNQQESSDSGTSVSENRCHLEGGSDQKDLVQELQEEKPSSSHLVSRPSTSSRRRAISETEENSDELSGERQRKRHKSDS
The mark [3] stands for this setting: 0.2 nM GST-hMDM2 (1-188), 0.5 nM biotinylated-p53 (1-83), 100 mM KF, read-out: HTRF2 IC50.

interaction between HDM2 and p53 (GST-hMDM2 (1-188) / biotinylated-p53 (1-83)), sequence (Q00987 1-188): as above

With `CN1C(=O)/C(=C/c2cccnc2)O[C@H](c2ccc(Cl)cc2)C1c1ccc(Cl)cc1` (mixture of isomers) [Example 39, (5S,6R,Z)-5,6-Bis(4-chlorophenyl)-4-methyl-2-(pyridin-3-ylmethylene)morpholin-3-one and (5R,6S,Z)-5,6-bis(4-chlorophenyl)-4-methyl-2-(pyridin-3-ylmethylene)morpholin-3-one], the results for the 50% inhibitory concentration (IC50) in assay [1] (setting [3]) and in assay [2] were 6640 nM and 10.4 µM, respectively.

Turning to `CCC[C@@H](C(=O)O)N1C(=O)[C@@H](Cc2ccncc2)O[C@H](c2ccc(Cl)cc2)C1c1ccc(Cl)cc1` (mixture of isomers) [Example 42, (S)-2-((2R,3S,6R)-2,3-Bis(4-chlorophenyl)-5-oxo-6-(pyridin-4-ylmethyl)morpholino)pentanoic acid and (R)-2-((2S,3R,6S)-2,3-bis(4-chlorophenyl)-5-oxo-6-(pyridin-4-ylmethyl)morpholino)pentanoic acid], the half-inhibitory concentration (IC50) in assay [1] (setting [3]) is 947 nM; in assay [2] it was 0.539 µM.

As to `O=C1[C@H](C[C@H](O)CO)O[C@@H](c2cccc(Cl)c2)[C@@H](c2ccc(Cl)cc2)N1CC1CC1` (racemic) [Example 14, Step B], the 50% inhibitory concentration (IC50) in assay [1] (read-out: HTRF2 IC50) was 3670 nM; in assay [2] it was 4.64 µM.

Regarding `O=CC[C@@H]1O[C@@H](c2cccc(Cl)c2)[C@@H](c2ccc(Cl)cc2)N(CC2CC2)C1=O` (racemic) [Example 15, (2-((2S,5R,6S)-6-(3-Chlorophenyl)-5-(4-chlorophenyl)-4-(cyclopropylmethyl)-3-oxomorpholin-2-yl)acetaldehydeacetaldehyde and (2-((2R,5S,6R)-6-(3-chlorophenyl)-5-(4-chlorophenyl)-4-(cyclopropylmethyl)-3-oxomorpholin-2-yl)acetaldehydeacetaldehyde], the IC50 in assay [1] (read-out: HTRF2 IC50) amounted to 3320 nM; in assay [2] it was 3.96 µM.

With `CCC[C@H](C(=O)NCC(N)=O)N1C(=O)[C@H](Cc2ccc(C#N)cc2)O[C@@H](c2ccc(Cl)cc2)[C@H]1c1ccc(Cl)cc1` (racemic) [Example 34, (R)—N-(2-Amino-2-oxoethyl)-2-((2S,3R,6S)-2,3-bis(4-chlorophenyl)-6-(4-cyanobenzyl)-5-oxomorpholino)pentanamide and (S)—N-(2-amino-2-oxoethyl)-2-((2R,3S,6R)-2,3-bis(4-chlorophenyl)-6-(4-cyanobenzyl)-5-oxomorpholino)pentanamide], the 50% inhibitory concentration (IC50) is 745 nM in assay [1] (read-out: HTRF2 IC50) and 0.486 µM in assay [2].

`CCC[C@H](c1nnn[nH]1)N1C(=O)[C@H](Cc2ccc(I)cc2)O[C@@H](c2ccc(Cl)cc2)[C@H]1c1ccc(Cl)cc1` (racemic) [Example 36, (2S,5R,6S)-4-((R)-1-(1H-Tetrazol-5-yl)butyl)-5,6-bis(4-chlorophenyl)-2-(4-iodobenzyl)morpholin-3-one and (2R,5S,6R)-4-((S)-1-(1H-tetrazol-5-yl)butyl)-5,6-bis(4-chlorophenyl)-2-(4-iodobenzyl)morpholin-3-one]: the IC50 in assay [2] was 0.514 µM.

For the compound `CN1C(=O)[C@@H](CC(N)=O)O[C@H](c2ccc(Cl)cc2)[C@@H]1c1ccc(Cl)cc1` [2-((2R,5S,6R)-5,6-bis(4-chlorophenyl)-4-methyl-3-oxo-2-morpholinyl)acetamide], in assay [2], the IC50 worked out at 43.9 µM.

In turn, `CC[C@H](C(=O)O)N1C(=O)CO[C@H](c2ccc(Cl)cc2)[C@@H]1c1ccc(Cl)cc1` [(2R)-2-((2R,3S)-2,3-bis(4-chlorophenyl)-5-oxo-4-morpholinyl)butanoic acid] showed an IC50 in assay [2] of 40.2 µM.

Consider `CCCC[C@H](C(=O)O)N1C(=O)CO[C@H](c2ccc(Cl)cc2)[C@@H]1c1ccc(Cl)cc1` [(2R)-2-((2R,3S)-2,3-bis(4-chlorophenyl)-5-oxo-4-morpholinyl)hexanoic acid], for which, in assay [2], the IC50 was determined as 33.1 µM.

On to `C[C@H](C(=O)O)N1C(=O)CO[C@H](c2ccc(Cl)cc2)[C@@H]1c1ccc(Cl)cc1` [(2R)-2-((2R,3S)-2,3-bis(4-chlorophenyl)-5-oxo-4-morpholinyl)propanoic acid], for which 61.7 µM corresponded to half-maximal inhibition in assay [2] (IC50).

As to `CCCC[C@H](C(=O)O)N1C(=O)CO[C@@H](c2ccc(Cl)cc2)[C@H]1c1ccc(Cl)cc1` [(2R)-2-((2S,3R)-2,3-bis(4-chlorophenyl)-5-oxo-4-morpholinyl)hexanoic acid], the IC50 in assay [1] was determined as 23400 nM; in assay [2], 27.5 µM.

As for `CCC[C@H](C(N)=O)N1C(=O)CO[C@@H](c2ccc(Cl)cc2)[C@H]1c1ccc(Cl)cc1` [(2R)-2-((2S,3R)-2,3-bis(4-chlorophenyl)-5-oxo-4-morpholinyl)pentanamide], the values for the concentration for half-maximal inhibition (IC50) in assay [1] (setting [3]) and in assay [2] were 4290 nM and 3.19 µM, respectively.

For the compound `CCC[C@H](COC(N)=O)N1C(=O)CO[C@@H](c2ccc(Cl)cc2)[C@H]1c1ccc(Cl)cc1` [(2R)-2-((2S,3R)-2,3-bis(4-chlorophenyl)-5-oxo-4-morpholinyl)pentyl carbamate], the half-maximal inhibitory concentration (IC50) turned out to be 3610 nM in assay [1] (setting [3]) and 3.72 µM in assay [2].

With `CCC[C@H](C(=O)O)N1C(=O)[C@H](Cc2ccc(C#N)c(F)c2)O[C@@H](c2ccc(Cl)cc2)[C@H]1c1ccc(Cl)cc1` [(2R)-2-((2S,3R,6S)-2,3-bis(4-chlorophenyl)-6-(4-cyano-3-fluorobenzyl)-5-oxo-4-morpholinyl)pentanoic acid], the half-maximal inhibitory concentration (IC50) in assay [1] worked out at 539 nM; in assay [2], 0.443 µM.

As for `CCC[C@H](C(=O)O)N1C(=O)[C@H](Cc2ccc(C#N)cc2)O[C@@H](c2ccc(Cl)cc2)[C@H]1c1ccc(Cl)cc1` [(2R)-2-((2S,3R,6S)-2,3-bis(4-chlorophenyl)-6-(4-cyanobenzyl)-5-oxo-4-morpholinyl)pentanoic acid], the results for the half-maximal inhibitory concentration (IC50) in assay [1] and in assay [2] were 393 nM and 0.297 µM, respectively.

`C[C@H]1O[C@@H](c2ccc(Br)cc2)[C@@H](c2ccc(Br)cc2)N(C)C1=O` [(2R,5R,6S)-5,6-bis(4-bromophenyl)-2,4-dimethyl-3-morpholinone]: the IC50 in assay [2] worked out at 46.8 µM.

As for `CN1C(=O)[C@H](O)O[C@@H](c2ccc(Cl)cc2)[C@H]1c1ccc(Cl)cc1` [(2R,5R,6S)-5,6-bis(4-chlorophenyl)-2-hydroxy-4-methyl-3-morpholinone], half-maximal inhibition in assay [2] (IC50) required 67.5 µM.

For the compound `C=CC[C@H]1O[C@H](c2ccc(Br)cc2)[C@H](c2ccc(Br)cc2)N(C)C1=O` [(2R,5S,6R)-5,6-bis(4-bromophenyl)-4-methyl-2-(2-propen-1-yl)-3-morpholinone], the IC50 was found to be 25000 nM in assay [1] (setting [3]) and 23.7 µM in assay [2].

Turning to `CN1C(=O)[C@@H](c2ccccc2)O[C@H](c2ccc(Br)cc2)[C@@H]1c1ccc(Br)cc1` [(2R,5S,6R)-5,6-bis(4-bromophenyl)-4-methyl-2-phenyl-3-morpholinone], the IC50 was found to be 20000 nM in assay [1] (setting [3]) and 12.3 µM in assay [2].

With `C[C@@H]1O[C@@H](c2ccc(Br)cc2)[C@@H](c2ccc(Br)cc2)N(C)C1=O` [(2S,5R,6S)-5,6-bis(4-bromophenyl)-2,4-dimethyl-3-morpholinone], the 50% inhibitory concentration (IC50) in assay [1] (setting [3]) is 22700 nM; in assay [2], 23.2 µM.

Regarding `CN1C(=O)CN(Cc2ccccc2)[C@H](c2ccc(Br)cc2)[C@@H]1c1ccc(Br)cc1` [(5R,6S)-5,6-bis(4-bromophenyl)-1-methyl-4-(phenylmethyl)-2-piperazinone], it took 72.3 µM to reach half-maximal inhibition in assay [2] (IC50).

On to `O=C1CN(Cc2ccccc2)[C@H](c2ccc(Br)cc2)[C@H](c2ccc(Br)cc2)N1` [(5R,6S)-5,6-bis(4-bromophenyl)-4-(phenylmethyl)-2-piperazinone], for which 84.4 µM corresponded to half-maximal inhibition in assay [2] (IC50).

With `O=C1CO[C@@H](c2ccc(Br)cc2)[C@@H](c2ccc(Br)cc2)N1C1CC1` [(5R,6S)-5,6-bis(4-bromophenyl)-4-cyclopropyl-3-morpholinone], it took 38.2 µM to reach half-maximal inhibition in assay [2] (IC50).

In turn, `O=C1CO[C@@H](c2ccc(Cl)cc2)[C@@H](c2ccc(Cl)cc2)N1CC1CC1` [(5R,6S)-5,6-bis(4-chlorophenyl)-4-(cyclopropylmethyl)-3-morpholinone] gave an IC50 in assay [2] of 41.8 µM.

Compound `CCN1C(=O)CO[C@H](c2ccc(Br)cc2)[C@@H]1c1ccc(Br)cc1` [(5S,6R)-5,6-bis(4-bromophenyl)-4-ethyl-3-morpholinone] registered an IC50 in assay [2] of 42.4 µM.

On to `CCC[C@H](C(=O)O)N1C(=O)[C@H](Cc2ccc(S(C)(=O)=O)cc2)O[C@@H](c2ccc(Cl)cc2)[C@H]1c1ccc(Cl)cc1` [Example 54, (R)-2-((2S,3R,6S)-2,3-Bis(4-chlorophenyl)-6-(4-(methylsulfonyl)benzyl)-5-oxomorpholino)pentanoic acid], for which, in assay [1] (setting [3]), the half-inhibitory concentration (IC50) worked out at 196 nM.

Regarding `CCC[C@H](C(=O)O)N1C(=O)[C@H](Cc2ccc(S(C)(=O)=O)cc2C#N)O[C@@H](c2ccc(Cl)cc2)[C@H]1c1ccc(Cl)cc1` [Example 55, (R)-2-((2S,3R,6S)-2,3-Bis(4-chlorophenyl)-6-(2-cyano-4-(methylsulfonyl)benzyl)-5-oxomorpholino)pentanoic acid], the concentration for half-maximal inhibition (IC50) in assay [1] (setting [3]) stood at 179 nM.

Take `CCC[C@H](C(=O)O)N1C(=O)[C@H](Cc2ccc(S(=O)(=O)C(F)(F)F)cc2)O[C@@H](c2ccc(Cl)cc2)[C@H]1c1ccc(Cl)cc1` [Example 56, (R)-2-((2S,3R,6S)-2,3-Bis(4-chlorophenyl)-5-oxo-6-(4-((trifluoromethyl)sulfonyl)benzyl)morpholino)pentanoic acid]: the IC50 in assay [1] (setting [3]) worked out at 453 nM.

Consider `CCC[C@H](C(=O)O)N1C(=O)[C@H](CCCN2CCOCC2)O[C@@H](c2ccc(Cl)cc2)[C@H]1c1ccc(Cl)cc1` [Example 57, (R)-2-((2S,3R,6S)-2,3-Bis(4-chlorophenyl)-6-(3-morpholinopropyl)-5-oxomorpholino)pentanoic acid], for which, in assay [1] (setting [3]), the IC50 turned out to be 391 nM.

In the case of `CCC[C@H](C(=O)OCC)N1C(=O)[C@H](CCCN2CCOCC2)O[C@@H](c2ccc(Cl)cc2)[C@H]1c1ccc(Cl)cc1` [ethyl (2R)-2-((2S,3R,6S)-2,3-bis(4-chlorophenyl)-6-(3-(4-morpholinyl)propyl)-5-oxo-4-morpholinyl)pentanoate], the IC50 in assay [1] (setting [3]) came out at 2790 nM.

Consider `CCC[C@H](C(=O)NCCCC(=O)OC)N1C(=O)[C@H](Cc2ccc(S(C)(=O)=O)cc2)O[C@@H](c2ccc(Cl)cc2)[C@H]1c1ccc(Cl)cc1` [methyl 4-(((2R)-2-((2S,3R,6S)-2,3-bis(4-chlorophenyl)-6-(4-(methylsulfonyl)benzyl)-5-oxo-4-morpholinyl)pentanoyl)amino)butanoate], for which, in assay [1] (setting [3]), the concentration for half-maximal inhibition (IC50) is 749 nM.
